Columns and labels:
[1] = test system: inward rectifier potassium current (IK1); experiment: Voltage clamp of inward rectifier IK1 in canine ventricular myocytes; type: cell-based; conditions: ranolazine up to 100 μM
Protocol: Myocytes were isolated by enzymatic dissociation from a wedge-shaped section of the left ventricular free wall supplied by the left circumflex coronary artery. Cells from the epicardial and midmyocardial regions of the left ventricle were used in this study.
Inward rectifier potassium current (IK), slow delayed rectifier potassium current (IKs), and rapid delayed rectifier potassium current (IKr) were recorded at 37° C. using conventional whole cell voltage clamp configuration.
IK1 was measured using an external solution containing 3 μM ouabain and 5 μM nifedipine to block the sodium-potassium pump and L-type calcium current (ICa,L), respectively. […] 5 μM nifedipine was present in the external solution when IKr was being recorded. […]
IKr was measured as the time-dependent tail current elicited at a potential of −40 mV following a short 250 ms depolarizing pulse to 30 mV. Data are presented as mean ±S.E.M. IK1 was recorded during 900 msec voltage steps applied from a holding potential of −40 mV to test potentials ranging from −100 mV to 0 mV, and was characterized as the 5 msec average of the steady state current at the end of the test pulse.
The inward rectifier, IK1, was recorded using perforated-patch voltage clamp techniques. […] Panel B plots composite data illustrating the current-voltage relations constructed from the average current measured at the end of each test pulse

late INa = late INa (Canis lupus familiaris, UniProt Q865W3); experiment: Late INa, perforated patch voltage clamp in isolated canine left ventricular myocytes; type: cell-based; conditions: 500 ms pulses to −30 mV at 1 Hz, read-out: Half-inhibition of late INa
anesthetized dog = experiment: QT prolongation and arrhythmia induction in anesthetized dog with AV block and phenylephrine challenge
Protocol: Dogs were pretreated with Atravet (0.07 mg/kg sc) and then 15 minutes later anesthetized with ketamine (5.3 mg/kg iv) and valium (0.25 mg/kg iv) followed by isoflurane (1-2%), intubated and subjected to mechanical ventilation. They were then subjected to AV block with radiofrequency ablation. A median sternotomy was performed and catheters were inserted into a femoral artery for blood pressure (BP) recording and into both femoral veins for infusion of test drugs. Bipolar electrodes were inserted into both ventricles for programmed stimulation determination of refractory periods (extrastimulus technique), as well as for evaluation of QT interval and QRS duration at various controlled basic cycle lengths (BCLs). TdP was induced by challenges of phenylephrine, which were given as bolus intravenous doses of 10, 20, 30, 40 and 50 μg/kg. After each dose, the ECG was monitored continuously to detect arrhythmias. […] Test drug effects were evaluated as per protocols below.
Data are presented as the mean ±S.E.M. Statistical comparisons were made with Student's t test. A 2-tailed probability<0.05 was taken to indicate statistical significance. In data tables, * denotes P<0.05, **P<0.01.
Group 2 (6 dogs): Five dogs received ranolazine as a 0.5 mg/kg iv load followed by a first, a second and a third continuous iv infusion of 1.0, 3.0 and 15 mg/kg/hr, respectively. One dog received ranolazine as a 1.5 mg/kg iv load followed by infusions of 15 and 30 mg/kg/hr. […] The phenylephrine challenges were then given, with all doses given at each drug infusion rate, and any arrhythmias monitor.

[2] = ranolazine 0.5 mg/kg iv load + 1.0 mg/kg/hr, BCL 300
[3] = ranolazine 0.5 mg/kg iv load + 1.0 mg/kg/hr, BCL 400
[4] = ranolazine 0.5 mg/kg iv load + 1.0 mg/kg/hr, BCL 600
[5] = ranolazine 3.0 mg/kg/hr, BCL 300
[6] = ranolazine 3.0 mg/kg/hr, BCL 400
[7] = ranolazine 3.0 mg/kg/hr, BCL 600
[8] = ranolazine 3.0 mg/kg/hr, BCL 1000
[9] = ranolazine 15 mg/kg/hr, BCL 400
[10] = ranolazine 15 mg/kg/hr, BCL 600
[11] = ranolazine 15 mg/kg/hr, BCL 1000

late INa, sequence (Q865W3 1-2013): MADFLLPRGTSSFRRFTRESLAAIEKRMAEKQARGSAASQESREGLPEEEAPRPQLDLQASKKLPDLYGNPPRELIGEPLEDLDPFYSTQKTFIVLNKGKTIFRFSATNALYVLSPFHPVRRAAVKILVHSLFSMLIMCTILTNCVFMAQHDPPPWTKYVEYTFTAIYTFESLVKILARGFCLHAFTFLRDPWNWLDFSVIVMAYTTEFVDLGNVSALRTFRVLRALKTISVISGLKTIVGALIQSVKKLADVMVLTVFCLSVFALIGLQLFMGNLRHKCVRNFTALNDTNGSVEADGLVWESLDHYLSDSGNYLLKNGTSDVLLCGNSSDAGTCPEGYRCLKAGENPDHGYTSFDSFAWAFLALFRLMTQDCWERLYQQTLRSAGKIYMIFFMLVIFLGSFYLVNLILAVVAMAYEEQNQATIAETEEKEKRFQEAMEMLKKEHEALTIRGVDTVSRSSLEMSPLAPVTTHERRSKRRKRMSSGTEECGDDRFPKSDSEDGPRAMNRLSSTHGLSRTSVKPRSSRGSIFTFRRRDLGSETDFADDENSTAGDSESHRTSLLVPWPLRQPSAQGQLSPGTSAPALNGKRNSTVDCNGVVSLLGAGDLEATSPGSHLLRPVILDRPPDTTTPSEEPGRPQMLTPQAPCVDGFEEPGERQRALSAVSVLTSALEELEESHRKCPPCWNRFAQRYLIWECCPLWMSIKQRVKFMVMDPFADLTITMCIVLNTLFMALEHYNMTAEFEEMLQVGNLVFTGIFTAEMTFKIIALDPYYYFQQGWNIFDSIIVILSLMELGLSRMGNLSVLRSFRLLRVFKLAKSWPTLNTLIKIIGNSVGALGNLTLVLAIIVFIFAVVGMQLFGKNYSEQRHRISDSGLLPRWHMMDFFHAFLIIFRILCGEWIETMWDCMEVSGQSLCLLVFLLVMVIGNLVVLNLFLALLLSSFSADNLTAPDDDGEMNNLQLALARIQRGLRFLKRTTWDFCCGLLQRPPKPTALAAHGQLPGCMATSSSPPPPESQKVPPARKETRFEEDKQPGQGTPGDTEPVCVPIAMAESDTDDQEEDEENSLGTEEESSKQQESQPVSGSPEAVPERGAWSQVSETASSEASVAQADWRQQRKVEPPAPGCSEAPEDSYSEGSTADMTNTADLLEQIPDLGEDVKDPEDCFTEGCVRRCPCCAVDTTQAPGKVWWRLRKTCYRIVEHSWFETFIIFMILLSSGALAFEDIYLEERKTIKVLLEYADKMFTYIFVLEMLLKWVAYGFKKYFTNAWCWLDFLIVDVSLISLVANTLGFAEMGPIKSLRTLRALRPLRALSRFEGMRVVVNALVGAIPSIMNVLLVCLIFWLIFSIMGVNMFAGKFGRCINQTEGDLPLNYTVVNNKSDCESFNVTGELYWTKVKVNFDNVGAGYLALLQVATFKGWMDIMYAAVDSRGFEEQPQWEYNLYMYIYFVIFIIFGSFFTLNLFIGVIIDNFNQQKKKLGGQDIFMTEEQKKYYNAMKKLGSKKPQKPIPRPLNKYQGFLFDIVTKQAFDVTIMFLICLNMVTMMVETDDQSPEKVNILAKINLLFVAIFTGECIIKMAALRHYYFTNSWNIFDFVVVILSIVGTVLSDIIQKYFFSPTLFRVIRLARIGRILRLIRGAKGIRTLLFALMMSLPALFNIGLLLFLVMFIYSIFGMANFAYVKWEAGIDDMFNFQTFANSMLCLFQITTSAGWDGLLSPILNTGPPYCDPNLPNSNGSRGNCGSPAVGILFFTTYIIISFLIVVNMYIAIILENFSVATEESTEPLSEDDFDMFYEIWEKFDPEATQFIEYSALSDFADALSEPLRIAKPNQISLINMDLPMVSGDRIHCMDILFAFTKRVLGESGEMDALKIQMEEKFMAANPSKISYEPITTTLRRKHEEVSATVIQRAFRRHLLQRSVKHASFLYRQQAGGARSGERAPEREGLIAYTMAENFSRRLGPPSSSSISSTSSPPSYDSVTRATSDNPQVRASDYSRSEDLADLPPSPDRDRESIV

`COc1ccccc1OCC(O)CN1CCN(CC(=O)Nc2c(C)cccc2C)CC1` (racemic) [ranolazine, N-(2,6-dimethylphenyl)-4-[2-hydroxy-3-(2-methoxyphenoxy)propyl]-1-piperazineacetamide] was tested. Which “Effect on IK1” value [1] did it give?
The value was “no change”.

What about the “Effect on IK1” value ([1]; listed as Ranolazine) of the same compound?
Its value is “did not alter”.

What about the IC50 (late INa) of the same compound?
The IC50 was 21 µM.

And the “Induction of torsades de pointes and/or ventricular fibrillation” value (anesthetized dog; dog, in vivo)?
Its value is “unable to induce any”.

And the “Maximum increase of QT interval” value (anesthetized dog; dog, in vivo, 3 mg/kg, 30 min)?
The value was “about 10%”.

What about the Arrhythmia occurrence (anesthetized dog; dog, in vivo, 30 min) of the same compound?
The Arrhythmia occurrence was “VT 13 beats,”.

What about the “Mean ERP-LV + SE” value (anesthetized dog; [2]) of the same compound?
The value was 185.00 ± 8.1 ms.

What about the “Mean ERP-RV + SE” value (anesthetized dog; [2]) of the same compound?
Its value is 182.84 ± 6.67 ms.

What about the “Mean ERP-LV + SE” value (anesthetized dog; [3]) of the same compound?
The value was 204.38 ± 11.01 ms.

And the “Mean ERP-RV + SE” value (anesthetized dog; [3])?
Its value is 201.50 ± 6.45 ms.

What about the “Mean ERP-LV + SE” value (anesthetized dog; [4]) of the same compound?
The value was 233.13 ± 12.43 ms.

What about the “Mean ERP-RV + SE” value (anesthetized dog; [4]) of the same compound?
Its value is 227.50 ± 8.87 ms.

What about the “Mean ERP-LV + SE” value (anesthetized dog; ranolazine 0.5 mg/kg iv load + 1.0 mg/kg/hr, BCL 1000) of the same compound?
Its value is 259.38 ± 18.18 ms.

What about the “Outcome of the high-dose dog” value (anesthetized dog; ranolazine 1.5 mg/kg iv load, 15 then 30 mg/kg/hr infusion) of the same compound?
The value was “died of pump failure”.

What about the “Mean ERP-LV + SE” value (anesthetized dog; [5]) of the same compound?
Its value is 189.38 ± 8.32 ms.

What about the “Mean ERP-RV + SE” value (anesthetized dog; [5]) of the same compound?
Its value is 181.00 ± 2.32 ms.

What about the “Mean ERP-LV + SE” value (anesthetized dog; [6]) of the same compound?
Its value is 211.45 ± 9.2 ms.

What about the “Mean ERP-RV + SE” value (anesthetized dog; [6]) of the same compound?
Its value is 199.66 ± 3.75 ms.

What about the “Mean ERP-LV + SE” value (anesthetized dog; [7]) of the same compound?
The value was 238.13 ± 13.25 ms.

What about the “Mean ERP-RV + SE” value (anesthetized dog; [7]) of the same compound?
The value was 224.50 ± 4.83 ms.

What about the “Mean ERP-LV + SE” value (anesthetized dog; [8]) of the same compound?
The value was 265.43 ± 19.42 ms.

What about the “Mean ERP-RV + SE” value (anesthetized dog; [8]) of the same compound?
The value was 249.50 ± 6.19 ms.

What about the “Mean ERP-RV + SE” value (anesthetized dog; ranolazine 15 mg/kg/hr, BCL 300) of the same compound?
Its value is 185.00 ± 5.76 ms.

What about the “Mean ERP-LV + SE” value (anesthetized dog; [9]) of the same compound?
The value was 215.00 ± 10.05 ms.

And the “Mean ERP-RV + SE” value (anesthetized dog; [9])?
The value was 206.50 ± 5.79 ms.

And the “Mean ERP-LV + SE” value (anesthetized dog; [10])?
The value was 237.50 ± 14.11 ms.

What about the “Mean ERP-RV + SE” value (anesthetized dog; [10]) of the same compound?
Its value is 229.50 ± 6.19 ms.

And the “Mean ERP-LV + SE” value (anesthetized dog; [11])?
Its value is 260.43 ± 19.32 ms.

And the “Mean ERP-RV + SE” value (anesthetized dog; [11])?
The value was 253.16 ± 7.77 ms.

And the “Mean increase of ERP” value (anesthetized dog; ranolazine infusions)?
Its value is ≤ 10%.

From patent US20080109040A1, “METHOD OF TREATING ARRHYTHMIAS” (priority 2002, published 2008)
